Earlier results in patent publication US20070072813A1, “Methods for preventing and treating metabolic disorders and new pyrazole-O-glycoside derivatives” (priority 2005, published 2007).

Settings: metformin on its own, in the diabetic

SMILES: CN(C)C(=N)N=C(N)N [metformin]
- average improvement in the HbA1c value: 1.0-1.5%
